A melting point compilation (Tetko et al.; mined from patent text by program, amines drawn as free bases though some values may be those of a salt)

Work on Cn1cc2c(nc(NC(=O)Nc3ccc(CC(=O)NCCCCNC(=O)OC(C)(C)C)cc3)n3nc(-c4ccco4)nc23)n1 yielded a melting point of 186 to 193 °C.
CC(=O)OCOC(=O)Oc1c(Br)cc(C#N)cc1Br gave a melting point of 84 to 86 °C.
Cc1cc(Cn2cnc(Cl)c2CC#N)ccc1OCc1ccccc1 showed a melting point of 102 to 105 °C.
CC(=O)c1ccc(NC(=O)C(C)(C)C)nc1 gave a melting point of 113 to 115 °C.
With COc1cc(C(C)(C)C)c2c(c1)C(C)(C)C(=O)O2 the melting point was 63.5 to 64.5 °C.
Work on COc1ccc(Cn2cc[nH]c2=S)cc1 yielded a melting point of 140 °C.
Molecule CCCc1c(OCc2cccn3c(=O)c(CCC(=O)O)cnc23)ccc(C(C)=O)c1O has a melting point of 210 to 214 °C.
In the case of C/C(=C\c1ccc(OCCN(C)C)cc1)c1ccc2c(c1)C(C)(C)CCS2, the melting point is reported as 81 to 82 °C.
Work on NC1=NC(=O)N(C2CCCCC2)CC1Br (centres undefined) yielded a melting point of 152 to 156 °C.
For O=S(=O)(c1ccccc1)n1nc(-c2ccncc2)nc1-c1ccncc1, the melting point was 210 to 212 °C.
Work on CN(C1=CC(=O)c2nccnc2C1=O)c1ccccc1 yielded a melting point of 207 to 208 °C.
In the case of CC1(C)C(C(=O)O)N2C(=O)C(NC(=O)Cc3ccccc3)C2S1=O (centres undefined), the melting point is reported as 143 to 145 °C.
Work on C=CCOc1cc(-n2c(=O)cc(C(F)(F)F)n(C)c2=O)c(F)cc1Br yielded a melting point of 120 °C.
Work on CC(C)(C)OC(=O)N1CCC[C@@H]1C=C(Br)Br yielded a melting point of 55 to 60 °C.
Work on CCOC(=O)Cn1c(=O)c(-c2ccccc2Cl)cc2cnc(NC3C4CN(Cc5ccccc5)CC43)nc21 (centres undefined) yielded a melting point of 186 to 188 °C.
Work on CC[C@H](C1CC1)n1cc(Cl)nc(N2CCc3cc(OC)cc(Cl)c32)c1=O yielded a melting point of 118 to 120 °C.
CCC(CC)c1ccc(Cl)c2nc3n(c12)CCCCN3c1cc(C)cc2c1ncn2C showed a melting point of 259 to 260 °C.
Work on O=C(Nc1cn(C2CCCCO2)nc1C(=O)NCC(O)Cc1ccccc1)c1ccccn1 (centres undefined) yielded a melting point of 132 to 134 °C.
COC(=O)c1cc(N2CCCC2)c(Oc2ccccc2)c(S(=O)(=O)Cl)c1 showed a melting point of 108 to 112 °C.
In the case of O=C(O)c1snnc1C1CC1, the melting point is reported as 158 to 159 °C.
Cc1nnc2n1-c1ccc(C#CCn3nc4ccccn4c3=O)cc1C(c1ccccc1F)=NC2 gave a melting point of 170 to 173 °C.
Molecule COc1ccc(-c2csc(Nc3ccccc3)n2)cc1OC has a melting point of 170 to 174 °C.
Work on CC(C)(C)S(=O)(=O)c1ccccc1NC(=O)N[C@@H](Cc1ccc(NC(=O)c2c(Cl)cncc2Cl)cc1)C(=O)O yielded a melting point of 228 °C.
In the case of CC(C)CN1CCn2c1nc1[nH]cnc1c2=O, the melting point is reported as 233 to 237 °C.
Work on O=C(Cl)C=CC=Cc1ccccc1 yielded a melting point of 51 to 52 °C.
Molecule CC(C)(CC(=O)O)C(=O)C(=O)O has a melting point of 134 to 135 °C.
With CC(C)(C)c1ccc(CCOc2ncnc3ncccc23)cc1 the melting point was 77 to 79 °C.
Work on COP(=O)(CC(=C(c1ccc(F)cc1)c1ccc(F)cc1)c1nnnn1C)OC yielded a melting point of 140 to 141 °C.
With C=C(c1ccc(-c2cc[nH]n2)cc1)C(O)(Cn1cncn1)c1ccc(F)cc1F (centres undefined) the melting point was 182 to 184 °C.
In the case of Cn1nnc2c(N3CCOCC3)nc(-c3ccc(NC(=O)Nc4cccs4)cc3)nc21, the melting point is reported as 182 °C.
For O=C(O)c1ccc(CCCc2ccccc2Cc2ccccc2)cc1, the melting point was 135 to 136 °C.
O=Cc1ncn2c1[C@@H]1CCCN1C(=O)c1c(Cl)cccc1-2 showed a melting point of 224 to 225 °C.
Molecule COc1ccc(/C=C/C(=O)CC(=O)/C=C/c2ccc(O)cc2)cc1O has a melting point of 207 to 210 °C.
Work on Cc1cc2c(c(C)c1O)OC[C@@H](N1CCC(O)(c3ccc(F)cc3)CC1)[C@H]2O (relative stereo) yielded a melting point of 226 to 227 °C.
In the case of OC(CCN1CCC(c2ccccc2)CC1)c1ccc(-c2ccccc2)cc1 (centres undefined), the melting point is reported as 99 to 101 °C.
In the case of O=C(c1cccs1)c1cccc2nc(N[C@@H]3CCc4ccccc43)ccc12, the melting point is reported as 176 °C.
Molecule CNc1cc(OCC2CO2)ccc1[N+](=O)[O-] (centres undefined) has a melting point of 113 °C.
Molecule Nc1nc(F)c(OC(F)F)c(Cl)n1 has a melting point of 77 to 80 °C.
Work on O=c1c2c(Cl)cc(Cl)cc2n(Cc2ccccc2)c(=O)n1Cc1ccccc1Br yielded a melting point of 129 to 132 °C.
In the case of O=c1nc(-c2c[nH]c3ccccc23)sc2ccccc12, the melting point is reported as 276 to 277 °C.
N#Cc1ccc(OCCCCCI)cc1 showed a melting point of 51 to 54 °C.
In the case of O=C1c2ccccc2C(O)(c2ccc(F)cc2)C2=NCCCN12 (centres undefined), the melting point is reported as 126 to 128 °C.
CCN1C(=O)NC(c2ccc3ccccc3c2)c2cc3c(cc21)OCO3 (centres undefined) showed a melting point of 193 to 195 °C.
CS(=O)c1ccc(C2=C(c3cc(F)cc(F)c3)C(=O)C(C)(C)O2)cc1 (centres undefined) showed a melting point of 133 to 134 °C.
For CCCN(CCC)[C@@H]1Cc2c(-c3ncco3)ccc3c2[C@H](CN3)C1, the melting point was 103 to 104 °C.
In the case of Cc1nc2c(OC3SCC(O)C(O)C3O)cccc2n1C (centres undefined), the melting point is reported as 153 °C.
Work on COc1ccc(-c2cn[nH]c2N)cc1 yielded a melting point of 198 to 201 °C.
O=C(O)c1ccc(CN2C(=O)c3ccc(C(=O)O)cc3C2=O)cc1 showed a melting point of 365 to 366 °C.
Molecule COc1ncc(Cl)cc1C1(O)CCN(CC23CC(c4ccccc42)c2ccccc23)CC1 has a melting point of 195 °C.
COc1ccc(Cn2cnc3c(-c4ccco4)nc(C(C)C)nc32)cc1 showed a melting point of 123 °C.
Work on COCCn1cnc2ccc(-c3sc(N)nc3-c3cccc(C)n3)cc21 yielded a melting point of 200 to 202 °C.
O=C(Nc1ccc(-n2nc(C(F)(F)F)cc2C2CC2)cc1)c1c(Cl)cncc1Cl gave a melting point of 182 to 184 °C.
In the case of Cc1ccc2[nH]c(CO)cc2c1, the melting point is reported as 94 to 95 °C.
Molecule COC(=O)N=C(NC(=O)OC)Nn1cccc1C(=O)OC has a melting point of 160 °C.
O=C(O)CP(=O)(O)C(CCCc1ccccc1)NC(=O)c1ccccc1 (centres undefined) gave a melting point of 170 to 175 °C.
COC(=O)C(=CO)N(C)C(=O)C=Cc1ccccc1Cl gave a melting point of 129 to 130 °C.
For O=C(OCc1ccccc1)C1CC(=C2NC(=O)N(c3ccccc3)C2=O)c2ccc(Cl)cc2N1 (centres undefined), the melting point was over 220 °C.
Work on CC(C)(C)c1ccc(-c2nc3ccc([N+](=O)[O-])cc3c(=O)o2)cc1 yielded a melting point of 159 to 161 °C.
For O=C(CCCCCCS(=O)c1ccc(Cl)cc1)NO (centres undefined), the melting point was 103 to 105 °C.
OCC(CO)SCc1ccc(Cl)cc1 gave a melting point of 70 to 75 °C.
In the case of Cn1ncc2c(=O)n3c(nc21)SC(c1ccccc1)C3 (centres undefined), the melting point is reported as 191 °C.
With CN(Cc1ccc(C2=NCCN2C(=O)OC(C)(C)C)cc1)C(=O)/C=C/CNCS(=O)(=O)c1ccc([N+](=O)[O-])cc1[N+](=O)[O-] the melting point was 78 °C.
In the case of CS(=O)(=O)OCCCOC(=O)c1[nH]c(-c2ccccc2)c2cc(Cl)ccc12, the melting point is reported as 155 to 158 °C.
With O=C(O)C(=O)c1ccc2c(c1)CCS2 the melting point was 122 to 123 °C.
Work on CCCN(CCC)C1COc2cccc(C(=O)c3ccc(F)cc3)c2C1 (centres undefined) yielded a melting point of 60 to 62 °C.
OC1c2ccccc2OC12CCCCCC2 (centres undefined) gave a melting point of 104 to 107 °C.
Molecule N#Cc1cccc2c1OCC2 has a melting point of 54.5 to 56 °C.
O=C1CC(Cl)=C(Cl)c2nc3cc(Cl)ccc3c(NCc3ccccc3)c21 showed a melting point of 141 to 143 °C.
With CC[Si](C#Cc1c2cc3ccccc3cc2c(C#C[Si](CC)(CC)CC)c2cc3ccccc3cc12)(CC)CC the melting point was 210 °C.
O=c1cc(-c2ccccc2F)oc(N2CCOCC2)c1 showed a melting point of 137 to 138 °C.
With CC#CCOc1cc(N(C)c2ccccc2)ncn1 the melting point was 57.6 °C.
With Nc1ncc(-c2ccccc2F)nc1C(=O)Nc1cccnc1 the melting point was 221 to 225 °C.
In the case of Clc1ccc(-c2cc(Cl)c3ccccc3n2)cc1, the melting point is reported as 119 to 122 °C.
Molecule CC(=O)NC1CCc2c([nH]c3ccc(Br)cc23)C1 (centres undefined) has a melting point of 210 to 211 °C.
Molecule COCCOc1ccc(O)cc1 has a melting point of 97.9 °C.
For CCC(=O)NC(=S)NCC1CC2c3cccc4[nH]cc(c34)CC2N(C)C1 (centres undefined), the melting point was 225 to 226 °C.
CSc1nc2ccnn2c(N)c1C#N gave a melting point of over 240 °C.
CCOC(=O)c1ncc2[nH]c3ccc(Oc4ccc(Br)cn4)cc3c2c1COC gave a melting point of 210 to 212 °C.
In the case of Cc1nc(N2CCC(O)C2)c2nc(-c3ccccc3)cc-2[nH]1 (centres undefined), the melting point is reported as 234 to 235 °C.
CCOC(=O)c1cn(NC=O)c2c(OCc3ccccc3)c(F)c(F)cc2c1=O gave a melting point of 188 to 190 °C.
In the case of CCOC(=O)C1=C(C)NC(C)=C(C(=O)OCC)C1c1cc([N+](=O)[O-])ccc1OCCCCNCC(O)COc1ccccc1 (centres undefined), the melting point is reported as 141 to 143 °C.
Work on CN1C(=N)c2c(Cl)cccc2S1(=O)=O yielded a melting point of 92.5 to 95 °C.
For Cc1ccc(-c2ccc(CO)cc2)cc1, the melting point was 128 to 131 °C.
For CCCCCc1cc2cc(O)ccc2c(Oc2ccc(/C=C/C(=O)O)cc2)c1-c1ccccc1, the melting point was 110 to 113 °C.
For Cc1[nH]c(C=O)c(C)c1CCC(=O)O, the melting point was 145 to 147 °C.
Molecule COC(=O)C1=C(COCC(C)n2c(C)nc(C)c2C)Nc2c(c(=O)n(C)c(=O)n2C)C1c1ccccc1Cl (centres undefined) has a melting point of 180 to 182 °C.
For O=C(O)Cc1ccc2c(c1)C(=O)c1ccc(Cl)cc1CS2, the melting point was 245 to 247 °C.
In the case of O=C(c1cccc(Cl)c1)c1cc(F)nc2ccccc12, the melting point is reported as 93.2 °C.
CC(C(=O)CCl)c1cccc(C(=O)c2ccccc2)c1 (centres undefined) gave a melting point of 60 °C.
With CC1=NN=C(c2ccc(NC=O)cc2)c2cc3c(cc2C1)OCO3 the melting point was 152 to 154 °C.
Molecule CN1C2CCCC1CC(NC(=O)c1cccc3nc(-c4ccccc4)oc13)C2 (centres undefined) has a melting point of 208 to 210 °C.
Cc1cccc2c(Nc3cccc(OCCCCN(CCCl)CCCl)c3)c3cccc(C(=O)NCCN(C)C)c3nc12 showed a melting point of 131 to 132 °C.
In the case of Nc1ccc2ccc(-c3cccc(Br)c3)nc2n1, the melting point is reported as 165 to 166 °C.
Work on CC1(C)CC(c2ccc(Cl)cc2)=C(c2ccc(S(C)(=O)=O)cc2)C1 yielded a melting point of 144 to 145 °C.
For OC(CCl)COc1ccc(-c2nc(C(F)(F)F)c[nH]2)cc1 (centres undefined), the melting point was 181 to 183 °C.
Work on O=C(O)c1ccc([N+](=O)[O-])c(S(=O)(=O)CCO)c1 yielded a melting point of 176 to 177 °C.
CC(C)Oc1cc(N)ccc1-n1cccc1 showed a melting point of 55 to 57 °C.
COC(=O)c1ccc(N2CCOCC2)c(NC(=N)N)c1 showed a melting point of 152 to 154 °C.
Molecule CCCCC(=O)N(Cc1ccc(-c2ccccc2S(=O)(=O)N=CN(C)C)cc1)C(C#N)C(=O)OCC (centres undefined) has a melting point of 130 to 132 °C.
Work on O=C(NCc1ccc(Cl)nc1)C(Cl)=NNc1ccc(C(F)(F)F)cc1 yielded a melting point of 172 to 173 °C.
In the case of c1ccc(C(=C(c2ccccc2)P(C2CCCCC2)C2CCCCC2)c2ccccc2)cc1, the melting point is reported as 121 to 123 °C.
Work on Cc1ccc2[nH]c3c(cc(-c4cccc(C=O)c4)c(=O)n3C)c2c1 yielded a melting point of 280 °C.
CCOc1cc2c(cc1OCC)C(C(S)(C#N)c1ccc(Cl)cc1)=NCC2 (centres undefined) showed a melting point of 157 to 160 °C.
For CN1CCC(C2c3sccc3CCn3ncnc32)CC1 (centres undefined), the melting point was 123 °C.
